Measured values reported in ChEMBL document CHEMBL3988442, “University of Dundee, Small-Polar-MMV Screening Library” (2021).

Tests used:
[1] = microbe, parasite or virus in culture; settings: Mycobacterium tuberculosis, 96 h, read-out: pIC50 (converted)
[2] = microbe, parasite or virus in culture; settings: Mycobacterium tuberculosis, 72 h, read-out: pIC50 (converted)

| Compound | IC50 [1] [µM] | IC50 [2] [µM] |
| --- | --- | --- |
| CCOC(=O)N1CCN(C(=O)Cc2cccs2)CC1 | > 501 | 371 |
| CSCCC(=O)NC(C)c1ccc2c(c1)OCCCO2 (stereo unspecified) | > 501 | > 501 |
| Cc1c(C(=O)NC[C@H]2CCCN2)n(C)c2ccccc12 | > 501 | > 501 |
| CCCc1ccc(C(=O)N2CCCN(C)CC2)cc1 | > 501 | 270 |
| Cc1ncsc1CCCNC(=O)c1cnccn1 | > 501 | > 501 |
| O=C(COc1ccc(F)cc1)Nc1ccon1 | > 501 | 186 |
| CCCc1nc(CN2Cc3ncccc3C2=O)cs1 | 119 | 120 |
| Cn1nc(C(F)(F)F)c(Cl)c1C(=O)N[C@@H]1CCNC1 | > 501 | 168 |
| CCCc1nc(C(=O)N2CC(c3ccncc3)C2)cs1 | 356 | 326 |
| NCC(=O)N1CCCC(CCc2ccc(F)c(F)c2)C1 (stereo unspecified) | 183 | 190 |
| COc1ccc2[nH]c(C(=O)NCC3CCCO3)cc2c1 (stereo unspecified) | 220 | 156 |
| NCc1cc(N[C@H](CO)CC2CCCCC2)ncn1 | > 501 | 296 |
| CC(C)(N)CN1CCCN(c2ccc(F)cc2)CC1 | 265 | 203 |
| Cc1cc(C)c(C#N)c(N2CCOCC(CO)C2)n1 (stereo unspecified) | > 501 | > 501 |
| CCn1ccc(C(=O)NC(C)c2ccccc2)n1 (stereo unspecified) | 182 | 84.4 |
| Cc1nc(CCN)cc(NC2CCC2)n1 | > 501 | 145 |
| N[C@@H](CO)C(=O)N1CCC(Cc2ccc(F)cc2)CC1 | > 501 | 195 |
| CCO[C@H]1CN(c2nc(-c3ccccc3)no2)C[C@@H]1O | > 501 | 262 |
| NCC(=O)N1CCCC(CCc2c(F)cccc2F)C1 (stereo unspecified) | 258 | 238 |
| CC1=NOC(C(=O)NCCc2nc3c(s2)CCCC3)C1 (stereo unspecified) | 286 | 169 |
| CC(=O)N1CCc2onc(-c3ccc(F)c(F)c3)c2C1 | 262 | 393 |
| O=C(c1ccc(Br)o1)N1CCN(Cc2ccco2)CC1 | 92 | 97.2 |
| CN1CCCCC1CC(=O)NCc1ccc(C#N)cc1 (stereo unspecified) | > 501 | > 501 |
| COc1ccc(-c2cc(NCCO)nc(N)n2)cc1C | > 501 | 280 |
| O=C(NCCSc1ccccn1)C1CCCCO1 (stereo unspecified) | > 501 | 476 |
| CCNCc1nc(-c2ccccc2)no1 | > 501 | > 501 |
| CNc1nc(C(=O)NC2COc3ccccc3C2)cs1 (stereo unspecified) | 262 | 130 |

| Compound | IC50 [1] [µM] | IC50 [2] [µM] |
| --- | --- | --- |
| CN(Cc1ccc(Oc2ccccc2)cc1)C(=O)CN | 157 | 130 |
| CC(C)Cc1noc(-c2ccc(N(C)CCO)nc2)n1 | 397 | 239 |
| CCc1nc(C#N)c(NCc2ccc3c(c2)OCO3)o1 | 205 | 105 |
| O=C(NCC1COCCO1)c1cnc2ccccc2c1 (stereo unspecified) | > 501 | > 501 |
| CN1CCN(C(=O)CC2Cc3ccccc3C2)CC1 | 43.7 | 96 |
| Cc1cc(Cl)ccc1NC(=O)CN1CCN(C)CC1 | > 501 | > 501 |
| O=C(NCc1ccc2c(c1)OCO2)N1CCCCC1 | 43.3 | 139 |
| CC(C)c1ncc(C(=O)N2CCS(=O)(=O)CC2)cn1 | > 501 | > 501 |
| Clc1ccc2c(c1)CNCCO2 | 67.8 | 33.4 |
| C=C(C)COc1c(Cl)cc(C(N)=O)cc1OC | 295 | 223 |
| O=C(CCc1ccccc1)N1CC(c2cccnc2)C1 | 25.3 | 45.7 |
| CC(=O)c1cc(C(=O)NCCSC(F)(F)F)[nH]n1 | 79.5 | 274 |
| COCCN(Cc1ccsc1)C(=O)CC1CCNC1 (stereo unspecified) | 80.1 | 187 |
| CCCc1ccc(CN2C[C@H](OCC)[C@@H](O)C2)o1 | 241 | 298 |
| OCCNCCNCc1ccc(-c2ccccc2F)o1 | 40.9 | 211 |
| COc1c(C)cc(Br)cc1C(=O)Nc1nnn(C)n1 | 209 | 206 |
| Cc1ccc(CCNC(=O)CSCCN2CCCC2)o1 | > 501 | 306 |
| CC(C)CC(O)C(=O)N1CCN(c2cccnc2)CC1 (stereo unspecified) | > 501 | 118 |
| Cc1ccc(F)c(C(=O)N[C@@H]2CNC[C@H]2O)c1Cl | > 501 | > 501 |
| O=C(NCCSC(F)(F)F)Nc1cccc2[nH]nnc12 | 265 | 286 |
| C=C(C)COc1ccc(C(=O)NCC[C@@H](C)CO)cc1 | 283 | 440 |
| Cc1cc(C)c(CN2CCOC(CN)C2)cc1C (stereo unspecified) | 259 | 183 |
| OC(CN1CCOC2(CCCC2)C1)c1ccccc1 (stereo unspecified) | 172 | 379 |
| CSCCC(=O)N(C)Cc1cccc(-n2cccn2)c1 | 286 | 269 |
| CCCn1nnc(NC(=O)c2ccccc2F)n1 | > 501 | 59.9 |
| CSCCN(C)Cc1cn(-c2ccccc2)nn1 | > 501 | > 501 |
